Reference: patent US20230158155A1, “Cell Surface Receptor Binding Compounds and Conjugates” (priority 2020, published 2023)

Legend:
[1] = target: T1, recombinant human CI-M6PR protein (Homo sapiens, UniProt P11717); assay: Human CI-M6PR binding assay (ELISA); details: conjugates of ligand linkers
T1 construct: purchased R&D 6418-GR-050
Description: Nunc black solid bottom MaxiSorp plates were allowed to incubate overnight at 4° C. coated with […] of recombinant human CI-M6PR protein (R&D, 6418-GR-050) in 50 μL PBS. The next day, coating was decanted and plates were washed 3× with PBS. Wells were blocked with 350 μL of 3% BSA-PBS for 1 hour at room temperature. […] 50 μL of diluted conjugates were added to the plate and allowed to incubate at room temperature for 2 hours. After incubation, solutions in plate were decanted and washed with 350 μL of 0.05% PBS-Tween20 three times, drying the plate each wash on a clean paper towel. 50 μL of peroxidase AffiniPure Mouse Anti-Human IgG (Jackson Immuno, 209-035-088) diluted in 3% BSA-PBS to […] was added to the plate and allowed to incubate for 1 hour at room temperature in the dark. After incubation, solutions in plate were decanted and washed with 350 μL of 0.05% PBS-Tween20 3 times, drying the plate each wash on a clean paper towel. […] 50 μL of QuantaBlu solution was added to wells and allowed to incubate for 5-10 minutes at room temperature. After incubation, plates were read on a Perkin Elmer EnVision using photometric 340 and Umbelliferone 460 filter sets for excitation and emission, respectively. Data analysis and non-linear curve-fitting was performed using GraphPad Prism.

[2] = tested on: Jurkat cells; assay: Conjugate-mediated uptake of IgG2a-Alexa488 into Jurkat cells (flow cytometry); type: cell-based; details: anti-IgG2a conjugates, 1 hour and 24 hours, FIGS. 21-22
Description: The anti-IgG2a conjugates were bound to IgG2a-Alexa488, as follows: equal molar ratios of anti-IgG2a and IgG2a-Alexa488 were added in tissue culture media for 30 minutes at room temperature. The resulting anti-IgG2a:IgG2a antibody-Alexa488 compositions were added to Jurkat cells (100 k cells/50 ul per well, n=2), and Alexa488 fluorescence levels were measured (via Alexa488 measurement) at 1 hour and 24 hours by flow cytometry. Because Alexa488 accumulates in cells, this presents a way to measure total intracellular uptake by cells over time.

[3] = Serum pharmacokinetic analysis of rIgG1 (anti-IgG2a) antibody conjugates; type: in vivo; details: C57B6 mice, intravenous, 10 μg/mouse, 0.5-24 hours, FIGS. 20A-20C
Description: A pharmacokinetic analysis of the rIgG1 (anti-IgG2a) antibody conjugates described in the previous example was performed in mice. In particular, C57B6 mice were intravenously administered each rIgG1 antibody conjugate at 10 μg/mouse (5 mice per group). Blood was collected at 0.5, 1, 2, 6, and 24 hours and serum rIgG1 was analyzed using an ELISA kit (Abcam) according to the manufacturer's instructions. Samples were run across 3 different plates with unconjugated rIgG1 controls (UNLB-anti-IgG2a rIgG1) included on all 3 plates.

T1 sequence (P11717 41-2491): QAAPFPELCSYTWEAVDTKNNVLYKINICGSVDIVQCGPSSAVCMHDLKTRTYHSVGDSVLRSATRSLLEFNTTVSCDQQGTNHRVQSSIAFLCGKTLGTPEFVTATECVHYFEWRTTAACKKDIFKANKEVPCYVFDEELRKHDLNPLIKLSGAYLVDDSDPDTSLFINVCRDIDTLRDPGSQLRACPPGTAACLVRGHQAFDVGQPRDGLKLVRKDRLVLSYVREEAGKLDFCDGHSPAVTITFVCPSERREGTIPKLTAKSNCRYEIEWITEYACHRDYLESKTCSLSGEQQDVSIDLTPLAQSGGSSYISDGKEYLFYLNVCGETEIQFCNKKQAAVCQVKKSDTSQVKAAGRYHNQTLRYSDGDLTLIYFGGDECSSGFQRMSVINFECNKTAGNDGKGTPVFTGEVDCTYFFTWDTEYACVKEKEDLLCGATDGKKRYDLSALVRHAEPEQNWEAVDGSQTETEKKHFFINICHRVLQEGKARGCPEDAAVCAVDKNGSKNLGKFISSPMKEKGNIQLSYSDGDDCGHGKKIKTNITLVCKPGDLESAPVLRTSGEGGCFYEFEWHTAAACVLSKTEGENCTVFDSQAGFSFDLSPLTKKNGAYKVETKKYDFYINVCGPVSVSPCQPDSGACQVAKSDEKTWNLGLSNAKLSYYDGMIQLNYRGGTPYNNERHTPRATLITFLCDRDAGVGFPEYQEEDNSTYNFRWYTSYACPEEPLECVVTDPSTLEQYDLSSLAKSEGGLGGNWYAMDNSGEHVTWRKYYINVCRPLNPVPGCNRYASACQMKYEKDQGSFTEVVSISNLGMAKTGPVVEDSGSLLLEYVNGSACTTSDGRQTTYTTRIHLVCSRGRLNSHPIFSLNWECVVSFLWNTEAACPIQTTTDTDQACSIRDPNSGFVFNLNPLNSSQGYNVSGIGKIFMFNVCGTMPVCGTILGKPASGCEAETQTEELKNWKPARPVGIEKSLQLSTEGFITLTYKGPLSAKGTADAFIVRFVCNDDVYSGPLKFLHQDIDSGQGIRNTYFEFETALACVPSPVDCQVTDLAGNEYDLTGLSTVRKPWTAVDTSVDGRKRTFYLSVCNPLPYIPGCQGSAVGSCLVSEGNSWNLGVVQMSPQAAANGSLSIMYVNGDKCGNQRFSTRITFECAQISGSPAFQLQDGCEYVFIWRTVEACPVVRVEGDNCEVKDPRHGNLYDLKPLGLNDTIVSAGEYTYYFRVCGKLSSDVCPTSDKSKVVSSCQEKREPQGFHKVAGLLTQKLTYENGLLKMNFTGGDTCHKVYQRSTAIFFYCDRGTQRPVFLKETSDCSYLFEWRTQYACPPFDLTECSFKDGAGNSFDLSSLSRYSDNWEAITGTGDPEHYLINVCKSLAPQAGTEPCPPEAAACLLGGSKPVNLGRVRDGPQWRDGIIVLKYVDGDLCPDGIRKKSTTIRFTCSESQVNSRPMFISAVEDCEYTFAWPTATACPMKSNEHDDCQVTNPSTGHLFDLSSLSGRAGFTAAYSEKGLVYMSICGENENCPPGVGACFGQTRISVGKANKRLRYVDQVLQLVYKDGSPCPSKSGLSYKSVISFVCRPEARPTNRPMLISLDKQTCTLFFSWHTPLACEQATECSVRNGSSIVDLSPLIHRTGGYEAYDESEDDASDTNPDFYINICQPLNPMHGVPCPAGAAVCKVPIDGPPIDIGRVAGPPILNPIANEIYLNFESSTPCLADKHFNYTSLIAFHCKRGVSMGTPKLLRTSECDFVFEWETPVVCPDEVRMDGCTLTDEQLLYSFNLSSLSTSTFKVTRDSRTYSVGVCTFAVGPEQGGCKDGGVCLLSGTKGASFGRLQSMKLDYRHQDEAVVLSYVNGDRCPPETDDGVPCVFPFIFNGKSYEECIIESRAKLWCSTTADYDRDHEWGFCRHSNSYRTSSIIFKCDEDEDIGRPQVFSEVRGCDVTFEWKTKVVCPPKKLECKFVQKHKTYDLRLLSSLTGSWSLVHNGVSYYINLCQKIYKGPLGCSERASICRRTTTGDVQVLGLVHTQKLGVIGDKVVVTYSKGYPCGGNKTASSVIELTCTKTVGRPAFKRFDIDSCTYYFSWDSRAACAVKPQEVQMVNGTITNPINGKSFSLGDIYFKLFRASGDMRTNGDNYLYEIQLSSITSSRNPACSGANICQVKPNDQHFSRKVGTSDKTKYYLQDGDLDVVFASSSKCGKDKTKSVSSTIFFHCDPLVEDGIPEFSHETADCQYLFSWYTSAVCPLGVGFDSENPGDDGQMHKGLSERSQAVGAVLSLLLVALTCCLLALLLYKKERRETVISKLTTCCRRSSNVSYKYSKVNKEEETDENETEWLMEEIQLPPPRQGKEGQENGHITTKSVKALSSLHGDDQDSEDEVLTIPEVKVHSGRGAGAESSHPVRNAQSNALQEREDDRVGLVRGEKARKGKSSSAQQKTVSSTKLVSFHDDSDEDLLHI

Row | SMILES | binding affinity to M6PR compared to Compound I-7 [1] | uptake of IgG2a-Alexa488 into Jurkat cells [2] | half life (serum rIgG1) compared to Compound I-7 conjugate [3]
1 | O=C(CCOCCOCCOCCN(CCOCCOCCOCCn1cc(CCC[C@H]2O[C@H](CCP(=O)(O)O)[C@@H](O)[C@H](O)[C@@H]2O)nn1)CCOCCOCCOCCn1cc(CCO[C@H]2O[C@H](CCP(=O)(O)O)[C@@H](O)[C@H](O)[C@@H]2O)nn1)Oc1c(F)c(F)c(F)c(F)c1F [Compound I-12] | weaker binding affinity | sufficiently robust uptake | longer half life
2 | O=C(CCOCCn1cc(CCO[C@H]2O[C@H](CCP(=O)(O)O)[C@@H](O)[C@H](O)[C@@H]2O)nn1)Oc1c(F)c(F)c(F)c(F)c1F [Compound I-11] | weaker binding affinity | sufficiently robust uptake | longer half life
